Assay results: patent US6894075B2, “4′-demethyl-4′-O-substituted-1-deoxypodophyllotoxin derivative and geometric isomer thereof, process for the preparation thereof and anti-cancer composition comprising the same” (priority 2000, dated 2005)
“And” between values parts separate entries of the source, which are not always exact repeats. Equal entries are not always repeated.

Legend:
A549 cell = test: Cytotoxicity test (SRB method) for A549 cells; assay type: cell-based, human; details: 48 hours incubation; for EC50: A549 human lung cancer cell, SRB, read-out: ED50(nM) for A549; for ED50(mg/mL) for A549: A549, SRB, Table 2
Excerpt: (§1) Human lung carcinomas A549 and […] were used for determining cytotoxicity of the compounds of the present invention according to the Sulfrhodamine-B (SRB) method which was developed by NCI in 1989 in order to determine in vitro anticancer activity of drugs.
(§2) Cells to be used in the experiment were separated from a surface using 0.5% Trypsin-EDTA solution and suspended in a density of 5×10^4 cell/ml therein. The cell suspension was introduced into a 96-well plate in an amount of 180/well and incubated for 24 hours in a 5% CO2 incubator of 37° C. Samples were dissolved in dimethylsulfoxide and then diluted by water distilled in advance for three times just before the experiment. Forty-one (41) samples were prepared into 4 types of final concentrations, i.e., 0.1, 0.03, 0.01 and 0.003 mg per ml of the medium. The diluted sample solutions were added to the 96-well plate in the amount of 20 μl/well and incubated for 48 hours in a CO2 incubator of 37° C. At the time of adding the samples, Tz (Time zero) plate was taken. The medium was removed from the Tz plate and each of the plates after incubation were completed. Ten (10)% […] (TCA) was added in the amount of […], and allowed to stand for 1 hour at 4° C. to fix the cells on the bottom surface of the plate. After the cells were fixed, the plate was washed five to six times with water to completely remove the remaining TCA solution and then dried at room temperature to completely remove the moisture. To the fully dried plate was introduced a dye solution in the amount of […] in which 0.4% SRB was dissolved in 1% acetic acid solution. […] After the dyeing process, the plate was dried again at room temperature. 100 ml of 10 mM Tris solution was added thereto in order to dissolve the dye, and then O.D. (optical density) was determined by microplate reader at 520 nm.
(§3) ED50 values for cancer cells were calculated as follows. The amount of SRB protein was analyzed at the time when incubation started by the addition of the sample. This amount was named time zero (Tz). The O.D. value obtained from a group which was not treated by the sample was named Control group (C) and the O.D. value obtained from a group which was treated by the sample was named Test group (T).
(§4) The degree of cytotoxicity of the compounds was calculated from Tz, C and T values according to the following equation.
(§5) That is, in the case of Tz≧T, the degree was calculated by
(§6) (T−Tz)/(C−Tz)×100(%), and
(§7) • in the case of Tz<T, the degree was calculated by […].
(§8) From the values thus obtained, ED50 value which is defined as the concentration at which growth of the cancer cell is inhibited by 50% was calculated using the regression function of Excel program.

[1] = tested on: Lewis Lung Cancer Cell (LLC); test: Anti-cancer test for BDF1 mouse transplanted by Lewis Lung Cancer Cell, Experiment 2-1 (formulae 1a, 1b); assay type: in vivo; details: peritoneal injection 0.06 mmole/kg/day at days 1, 2, 4, 7, 8 (etoposide 36 mg/kg), cancer volume at 14 to 16 days
Excerpt: In order to evaluate the anti-cancer activity of the compounds of the present invention, LLC, which is a lung cancer cell of mouse, was transplanted into the hypodermic region of BDF1 mouse to induce a solid cancer. […] Experiment for the compounds of formulae (1a) and (1b) and that for the compound of formula (1c) were separately carried out.
Male BDF1 mouse (Weight 18 to 25 g), being in good health and purchased from Korea Biolink Co., was used as a test animal.
The mice were bred at a place controlled to the temperature of 23 to 24° C. while provided with water and feed ad libitum. As the feed, feed for mouse containing no antibiotics was used. The hypodermic tissue of C57BL/6 mouse, which includes cells cultured therein for 14 days, was taken up. Sterilized cold physiological saline was added to the tissue in the amount of 5 ml/g tissue to make a cell suspension. This cell suspension of 0.2 ml was transplanted into the hypodermic region of armpit of BDF1 mouse.
(§9) Each group includes 5 mice. After 24 hours from the transplantation, each test compound of formulae (1a) and (1b) was dissolved in 4% Tween 80 and injected peritoneally in the amount of 0.2 ml and in a concentration of 0.06 mmole/kg/day (that is, 0.06 mmole of each test compound was dissolved in 10 ml of 4% Tween 80, and then 0.2 ml of the resulting solution was peritoneally injected into a mouse). Only 4% Tween 80 was injected for the negative control group, and the same moles of etoposide (36 mg/kg) was injected for the positive control group. The injection was performed five times at 1, 2, 4, 7 and 8 days from the transplantation of cancer.
The anti-cancer effect was determined by measuring the volume of cancer of the control and test groups at 14 to 16 days from the administration of drugs and then calculated as follows. Volume of Cancer(mm^3)=Length(mm)×Width^2(mm^2)/2 Suppression Rate of Cancer Growth(%)=(C−T)×100(%)/C in which • C represents the average volume of cancer (mm^3) of the control group, and • T represents the average volume of cancer (mm^3) of the test group.

[2] = Weight change in the period of drug administration; assay type: in vivo, mouse; details: for Weight of mouse, Day 1: Day 1 from the cancer cell transplantation; for Weight of mouse, Day 2: Day 2 from the cancer cell transplantation; for Weight of mouse, Day 3: Day 3 from the cancer cell transplantation; for Weight of mouse, Day 4: Day 4 from the cancer cell transplantation; for Weight of mouse, Day 5: Day 5 from the cancer cell transplantation; for Weight of mouse, Day 6: Day 6 from the cancer cell transplantation; for Weight of mouse, Day 7: Day 7 from the cancer cell transplantation; for Weight of mouse, Day 8: Day 8 from the cancer cell transplantation
Description: as §9
As an index of toxicity, the weight change during the period of drug administration was recorded for the compounds of formulae (1a) and (1b) compared with the comparison compound of Etoposide.

SK-MEL-2 cell = test: Cytotoxicity test (SRB method) for SK-MEL-2 cells; assay type: cell-based, human; details: SK-MEL-2, SRB, 48 hours incubation
Excerpt: as §1, §2, §3, §4, §5, §6, §7, §8

Row | SMILES | EC50 (A549 cell) [nM] | Suppression Rate for LLC [1] | Weight of mouse, Day 1 [2] [g] | Weight of mouse, Day 2 [2] [g] | Weight of mouse, Day 3 [2] [g] | Weight of mouse, Day 4 [2] [g] | Weight of mouse, Day 5 [2] [g] | Weight of mouse, Day 6 [2] [g] | Weight of mouse, Day 7 [2] [g] | Weight of mouse, Day 8 [2] [g] | ED50(mg/mL) for A549 (A549 cell) [mg/mL] | ED50(mg/mL) for SK-MEL-2 (SK-MEL-2 cell) [mg/mL]
1 | COc1cc(C2c3cc4c(cc3CC3COC(=O)C32)OCO4)cc(OC)c1OC(=O)NC(C)C (centres unmarked) [Compound 1b-2, 4′-demethyl-4′-O-isopropylcarbamoyl-1-deoxypodophyllotoxin] | 153 | 90% and 90.1% | 22.8 | 23.6 | 23.2 | 25 | 25 | 26.1 | 26 | 26 |  | 
2 | COc1cc([C@@H]2c3cc4c(cc3[C@@H](O[C@@H]3O[C@@H]5CO[C@@H](C)O[C@H]5[C@H](O)[C@H]3O)[C@H]3COC(=O)[C@H]23)OCO4)cc(OC)c1O [Etoposide, reference compound] | 1990 | 90% and 90.8% | 23 | 24 | 25.1 | 26 | 25.9 | 26.3 | 25.6 | 26.6 | 1.102 | 
3 | COc1cc(C2c3cc4c(cc3CC3COC(=O)C32)OCO4)cc(OC)c1OC(=O)CCCCCN (centres unmarked) [Compound 1a-13, 4′-demethyl-4′-O-(6-aminohexanoyl)-1-deoxypodophyllotoxin] | 88.5 | 85% and 85.5% | 23 | 24.2 | 25 | 25.2 | 25 | 25.5 | 26 | 26.2 |  | 
4 | COc1cc(C2c3cc4c(cc3CC3COC(=O)C32)OCO4)cc(OC)c1OC(=O)CCCCCCCN (centres unmarked) [Compound 1a-15, 4′-demethyl-4′-O-(8-aminooctanoyl)-1-deoxypodophyllotoxin] | 74.2 | 34.5% |  |  |  |  |  |  |  |  |  | 
5 | COc1cc(C2c3cc4c(cc3CC3COC(=O)C32)OCO4)cc(OC)c1OC(C)=O (centres unmarked) [Compound 1c-3, 4′-demethyl-4′-O-acetyl-1-deoxypodophyllotoxin] |  |  |  |  |  |  |  |  |  |  | 0.003 | 0.006
6 | COc1cc(C2c3cc4c(cc3CC3COC(=O)C32)OCO4)cc(OC)c1OC(=O)CC(C)C (centres unmarked) [Compound 1c-6, 4′-demethyl-4′-O-(3′-methylbutanoyl)-1-deoxypodophyllotoxin] |  |  |  |  |  |  |  |  |  |  | 0.006 | 0.089
7 | COc1cc(C2c3cc4c(cc3CC3COC(=O)C32)OCO4)cc(OC)c1OC(=O)CCCCCCCCCCCCCCC(=O)O (centres unmarked) [Compound 1c-38, 4′-demethyl-4′-O-(15′-carboxy-pentadecanoyl)-1-deoxypodophyllotoxin] |  |  |  |  |  |  |  |  |  |  | 0.106 | 0.027
8 | CCCCCCCCCC(=O)Oc1c(OC)cc(C2c3cc4c(cc3CC3COC(=O)C32)OCO4)cc1OC (centres unmarked) [Compound 1c-9, 4′-demethyl-4′-O-decanoyl-1-deoxypodophyllotoxin] |  |  |  |  |  |  |  |  |  |  | 0.027 | 0.004
